Each structure is given as a SMILES string.

This assay concerns Human prostate cancer cell lines (PC-3 cells). In words: Measurement of cell death-inducing activity (Test Example 1). Type of assay: cell-based. The conditions noted are these: PC-3, 48 h, 48 hours after addition, tested at 10, 1, 0.1, 0.025 and 0.00625 μmol/L, qualitative evaluation of 10 fields, read-out: Concentration showing the cell death-inducing activity (cell death-inducing rate not less than 40%). The procedure, abridged: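 Compound treatment lasted 48 h at 10 to 0.00625 μmol/L (five levels, DMSO as control) on PC-3 cells pre-cultured 48 h at 37 °C, 5% CO2 after seeding at 1×10^5 cells/well. A cell death-inducing rate of 40% or more counted as active.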
On to `COc1ccc(/C=N/NC(=O)c2sc(-c3ccccc3F)nc2C)cc1` [Example 23-65], for which the minimal effective concentration worked out at 1 µM.

Consider `COc1cc(Cl)ccc1-c1cc(NC(=O)OCc2ccc3c(c2)ncn3C)n(C)c1` [Example 10-2, [4-(4-Chloro-2-methoxyphenyl)-1-methyl-1H-pyrrol-2-yl]carbamic acid 1-methyl-1H-benzimidazol-5-ylmethyl ester], for which the minimal effective concentration is 1 µM.

As to `CCCn1cnc2cc(NC(=O)OCc3sc(-c4ccc(C)cc4C)nc3C)ccc21` [Example 13-19], the minimal effective concentration stood at 1 µM.

`COc1ccc(-c2nc(C)c(C(=O)N/N=C/c3ccc(O)c4ccccc34)s2)cc1` [Example 23-113]: the minimal effective concentration is 10 µM.

On to `CCCCCCOc1ccc(/C=N/NC(=O)c2sc(-c3ccc(Cl)cc3)nc2C)cc1O` [Example 23-105], for which the minimal effective concentration amounted to 10 µM.

On to `Cc1ccc(-c2nc(C)c(NC(=O)OCc3ccc4c(c3)CCO4)s2)c(C)c1` [Example 9-8], for which the minimal effective concentration worked out at 10 µM.

Turning to `COc1cc(Cl)ccc1-c1cc(COC(=O)Nc2ccc3c(c2)nc2n3CCOC2)sn1` [Example 47-9], the minimal effective concentration worked out at 0.00625 µM.

With `Cc1ccncc1-c1nc(C)c(C(=O)N/N=C/c2cc(C)c(O)c(C)c2)s1` [Example 23-136], the minimal effective concentration came to 1 µM.

Take `COc1ccc(/C=N/NC(=O)c2sc(-c3ccc(Cl)cc3OC)nc2C)cc1` [Example 23-79]: the minimal effective concentration was 0.1 µM.

On to `CCCCCCc1nc(-c2ccc(Cl)cc2)sc1C(=O)N/N=C/c1ccc(OC)c(O)c1` [Example 23-30], for which the minimal effective concentration was found to be 10 µM.

With `COc1ccc(/C=N/NC(=O)c2sc(-c3ccc(F)cc3)nc2C)cc1O` [Example 23-73], the minimal effective concentration was found to be 0.1 µM.

As for `CCc1nc(-c2ccc(F)cc2C)sc1COC(=O)Nc1ccc2c(c1)nc1n2CCSC1` [Example 43-4], the minimal effective concentration stood at 1 µM.

Turning to `COc1ccc(/C=N/NC(=O)c2sc(-c3ccc(C)cc3C)nc2C)cc1O` [Example 23-44], the minimal effective concentration amounted to 0.1 µM.

As for `Cc1nc2cc(COC(=O)Nc3sc(-c4ccc(Cl)cc4C)nc3C)ccc2s1` [Example 37-4], the minimal effective concentration is 1 µM.

In the case of `Cc1ccc(-c2nc(C)c(NC(=O)OCc3ccc4c(c3)ncn4C)s2)c(C)c1` [Example 9-42], the minimal effective concentration was 0.00625 µM.

As for `CCn1cc2cc(COC(=O)Nc3sc(-c4ccccc4OC)nc3C)ccc2n1` [Example 9-152], the minimal effective concentration came to 0.1 µM.

As for `COc1cc(Cl)ccc1-c1cc(C(=O)N/N=C/c2cc(C)c(O)c(C)c2)[nH]n1` [Example 22-9], the minimal effective concentration was determined as 0.1 µM.

In the case of `COc1cc(Cl)ccc1-c1cc(NC(=O)OCc2ccc3c(c2)nc(C)n3C)n(C)n1` [Example 9-239], the minimal effective concentration amounted to 0.025 µM.

For `Cc1ccc(-c2nc(C)c(COC(=O)Nc3ccc4c(c3)nc3n4CCSC3)s2)c(C)c1` [Example 43-3], the minimal effective concentration was 0.1 µM.

With `COc1ccc(/C=N/NC(=O)c2sc(-c3ccccc3OC)nc2C)cc1B(O)O` [Example 23-160], the minimal effective concentration is 0.1 µM.

As for `COc1ccccc1-c1cc(COC(=O)Nc2ccc3c(c2)nc2n3CCCC2)sn1` [Example 47-5], the minimal effective concentration is 0.1 µM.

In the case of `Cc1cc(F)ccc1-c1nc(C)c(COC(=O)Nc2ccc3nn(C)cc3c2)s1` [Example 13-49], the minimal effective concentration was found to be 0.1 µM.

Take `Cc1nc(-c2ccc(Cl)cc2)sc1C(=O)N/N=C/c1ccc2occc2c1` [Example 23-161]: the minimal effective concentration was 1 µM.

For `CCn1nc(-c2ccccc2OC)cc1COC(=O)Nc1ccc2c(cnn2C)c1` [Example 13-124], the minimal effective concentration amounted to 10 µM.

On to `Cc1ccc(-c2nc(C)c(COC(=O)Nc3ccc4c(c3)nc3n4CCCC3)s2)c(C)c1` [Example 13-33], for which the minimal effective concentration turned out to be 0.1 µM.

Consider `COc1ccccc1-c1cc(COC(=O)Nc2ccc3c(c2)ncn3C)n(C)n1` [Example 13-76], for which the minimal effective concentration was 0.025 µM.

For `Cc1ccccc1-c1cc(NC(=O)OCc2ccc3c(c2)ncn3C)n(C)n1` [Example 9-205], the minimal effective concentration came out at 1 µM.

`COc1cc(Cl)ccc1-c1nc(C)c(NC(=O)OCc2ccc3c(c2)nc2n3CC(O)C2)s1` (stereo not shown) [Example 9-340]: the minimal effective concentration turned out to be 0.025 µM.

On to `COc1cc(Cl)ccc1-c1nc(C)c(COC(=O)Nc2ccc3c(c2)nc2n3CCCC2)s1` [Example 13-31], for which the minimal effective concentration came out at 1 µM.

`CCc1nc(-c2ccc(C)cc2C)sc1NC(=O)OCc1ccc2c(c1)ncn2C` [Example 9-182]: the minimal effective concentration was determined as 0.025 µM.

With `COc1cc(C)ccc1-c1nc(C)c(NC(=O)OCc2ccc3c(c2)ncn3C)s1` [Example 9-40], the minimal effective concentration stood at 0.00625 µM.

For the compound `CCn1cc2cc(COC(=O)Nc3sc(-c4ccc(F)cc4C)nc3C)ccc2n1` [Example 9-158], the minimal effective concentration worked out at 1 µM.

`CCn1nc(-c2ccc(C)cc2OC)cc1NC(=O)OCc1ccc2c(c1)nc1n2CCOC1` [Example 9-250]: the minimal effective concentration turned out to be 0.025 µM.

Consider `COc1ccc(CN(C)NC(=O)c2sc(-c3ccc(Cl)cc3C)nc2C)cc1OC` [Example 16-17], for which the minimal effective concentration was found to be 1 µM.

Consider `CCn1nc(-c2ccc(C)cc2OC)cc1COC(=O)Nc1ccc2c(c1)nc1n2CCC1` [Example 13-113], for which the minimal effective concentration was 0.00625 µM.

On to `Cc1cc(Cl)ccc1-c1nc(C(F)(F)F)c(NC(=O)OCc2ccc3c(c2)ncn3C)s1` [Example 9-186], for which the minimal effective concentration was determined as 1 µM.

Regarding `Cc1cc(Cl)ccc1-c1nc(C)c(NC(=O)OCc2ccc3c(c2)nc2n3CCOC2)s1` [Example 9-98], the minimal effective concentration was 0.00625 µM.

On to `CCn1cnc2cc(COC(=O)Nc3sc(-c4ccc(OC)cc4OC)nc3C)ccc21` [Example 9-61], for which the minimal effective concentration came to 0.00625 µM.

`CCn1nc(-c2ccccc2OC)cc1NC(=O)OCc1ccc2c(c1)ncn2CC` [Example 9-216]: the minimal effective concentration was 1 µM.

As for `C/C(=N\N=C\c1cc(C)c(O)c(C)c1)c1sc(-c2ccc(Cl)cc2)nc1C` [Example 30-1, 4-{[1-[2-(4-Chlorophenyl)-4-methylthiazol-5-yl]ethylidene]hydrazonomethyl}-2,6-dimethyl-phenol], the minimal effective concentration worked out at 10 µM.

As to `COc1ccc(CN(C)NC(=O)c2cc(-c3ccccc3OC)oc2C)cc1` [Example 20-1, 5-(2-Methoxyphenyl)-2-methylfuran-3-carboxylic acid N′-(4-methoxybenzyl)-N′-methyl hydrazide], the minimal effective concentration is 10 µM.

Turning to `COc1ccc(/C=N/NC(=O)c2sc(-c3ncccc3C)nc2C)cc1O` [Example 23-26], the minimal effective concentration amounted to 1 µM.

Take `COc1cc(Cl)ccc1-c1nc(C)c(C(=O)N/N=C/c2cccc3[nH]ccc23)s1` [Example 23-94]: the minimal effective concentration was 1 µM.

With `COc1cc(Cl)ccc1-c1cc(C(=O)N/N=C/c2ccc3c(c2)ncn3C)[nH]n1` [Example 22-10], the minimal effective concentration is 0.1 µM.

For `Cc1ccc(-c2cc(NC(=O)OCc3ccc4nn(C)cc4c3)n(C)n2)c(C)c1` [Example 9-295], the minimal effective concentration came to 0.1 µM.

On to `CCCc1nc(-c2ccc(Cl)cc2OC)sc1COC(=O)Nc1ccc2c(c1)ncn2C` [Example 13-68], for which the minimal effective concentration is 1 µM.

The values are drawn from patent US9200008B2 (ASKA PHARMACEUTICAL CO., LTD., priority 2010, dated 2015).
